How the values were obtained:
Assay type in all cases: cell-based
[1] = Binding affinity to Aplysia californica AchBP I118M, M116L mutant expressed in HEK293S cells by scintillation proximity assay
[2] = Binding affinity to Aplysia californica AchBP A107M, M116L, Y195F mutant expressed in HEK293S cells by scintillation proximity assay
HEK293S [3] = assay: Binding affinity to Aplysia californica AchBP M116L mutant expressed in HEK293S cells assessed as specific photoincorporation at 46 pmol by scintillation counting relative to wild type
HEK293S [4] = assay: Binding affinity to Aplysia californica AchBP I106M, M116L mutant expressed in HEK293S cells assessed as specific photoincorporation at 46 pmol by scintillation counting
[5] = Binding affinity to Aplysia californica AchBP M116L mutant expressed in HEK293S cells by scintillation proximity assay
HEK293S [6] = assay: Binding affinity to Aplysia californica AchBP V108M mutant expressed in HEK293S cells assessed as specific photoincorporation at 46 pmol by scintillation counting relative to wild type
HEK293S [7] = assay: Binding affinity to Aplysia californica AchBP I118M, M116L, Y195F mutant expressed in HEK293S cells assessed as specific photoincorporation at 46 pmol by scintillation counting
HEK293S [8] = assay: Binding affinity to Aplysia californica AchBP M116L,Y195F mutant expressed in HEK293S cells assessed as specific photoincorporation at 46 pmol by scintillation counting relative to wild type
HEK293S [9] = assay: Binding affinity to Aplysia californica AchBP S114M, M116L, Y195F mutant expressed in HEK293S cells assessed as specific photoincorporation at 46 pmol by scintillation counting relative to wild type
HEK293S [10] = assay: Binding affinity to Aplysia californica AchBP V108M, M116L, Y195F mutant expressed in HEK293S cells assessed as specific photoincorporation at 46 pmol by scintillation counting relative to wild type
HEK293S [11] = assay: Binding affinity to wild type Aplysia californica AchBP expressed in HEK293S cells assessed as specific photoincorporation at 46 pmol by scintillation counting
[12] = Binding affinity to wild type Aplysia californica AchBP expressed in HEK293S cells by scintillation proximity assay
[13] = Binding affinity to Aplysia californica AchBP Y195F mutant expressed in HEK293S cells by scintillation proximity assay
[14] = Binding affinity to Aplysia californica AchBP M116L,Y195F mutant expressed in HEK293S cells by scintillation proximity assay
[15] = Binding affinity to Aplysia californica AchBP I118M mutant expressed in HEK293S cells by scintillation proximity assay
HEK293S [16] = assay: Binding affinity to Aplysia californica AchBP I106M, M116L, Y195F mutant expressed in HEK293S cells assessed as specific photoincorporation at 46 pmol by scintillation counting relative to wild type
HEK293S [17] = assay: Binding affinity to Aplysia californica AchBP M116L mutant expressed in HEK293S cells assessed as specific photoincorporation at 46 pmol by scintillation counting
HEK293S [18] = assay: Binding affinity to Aplysia californica AchBP Y195F mutant expressed in HEK293S cells assessed as specific photoincorporation at 46 pmol by scintillation counting
[19] = Binding affinity to Aplysia californica AchBP I106M, M116L, Y195F mutant expressed in HEK293S cells by scintillation proximity assay
[20] = Binding affinity to Aplysia californica AchBP V108M mutant expressed in HEK293S cells by scintillation proximity assay
HEK293S [21] = assay: Binding affinity to Aplysia californica AchBP A107M mutant expressed in HEK293S cells assessed as specific photoincorporation at 46 pmol by scintillation counting
HEK293S [22] = assay: Binding affinity to Aplysia californica AchBP S114M, M116L, Y195F mutant expressed in HEK293S cells assessed as specific photoincorporation at 46 pmol by scintillation counting
HEK293S [23] = assay: Binding affinity to Aplysia californica AchBP M116L,Y195F mutant expressed in HEK293S cells assessed as specific photoincorporation at 46 pmol by scintillation counting
HEK293S [24] = assay: Binding affinity to Aplysia californica AchBP Y195F mutant expressed in HEK293S cells assessed as specific photoincorporation at 46 pmol by scintillation counting relative to wild type
HEK293S [25] = assay: Binding affinity to Aplysia californica AchBP V108M, M116L mutant expressed in HEK293S cells assessed as specific photoincorporation at 46 pmol by scintillation counting
[26] = Binding affinity to Aplysia californica AchBP V108M, M116L, Y195F mutant expressed in HEK293S cells by scintillation proximity assay
[27] = Binding affinity to Aplysia californica AchBP S114M, M116L mutant expressed in HEK293S cells by scintillation proximity assay
HEK293S [28] = assay: Binding affinity to Aplysia californica AchBP M116Y, Y195F mutant expressed in HEK293S cells assessed as specific photoincorporation at 46 pmol by scintillation counting relative to wild type
[29] = Binding affinity to Aplysia californica AchBP V108M, M116L mutant expressed in HEK293S cells by scintillation proximity assay
HEK293S [30] = assay: Binding affinity to Aplysia californica AchBP I106M, M116L mutant expressed in HEK293S cells assessed as specific photoincorporation at 46 pmol by scintillation counting relative to wild type
[31] = Binding affinity to Aplysia californica AchBP I118M, M116L, Y195F mutant expressed in HEK293S cells by scintillation proximity assay
HEK293S [32] = assay: Binding affinity to Aplysia californica AchBP V108M, M116L mutant expressed in HEK293S cells assessed as specific photoincorporation at 46 pmol by scintillation counting relative to wild type
HEK293S [33] = assay: Binding affinity to Aplysia californica AchBP A107M, M116L, Y195F mutant expressed in HEK293S cells assessed as specific photoincorporation at 46 pmol by scintillation counting relative to wild type
[34] = Binding affinity to Aplysia californica AchBP M116Y mutant expressed in HEK293S cells by scintillation proximity assay
[35] = Binding affinity to Aplysia californica AchBP I106M, M116L mutant expressed in HEK293S cells by scintillation proximity assay
HEK293S [36] = assay: Binding affinity to Aplysia californica AchBP I118M, M116L, Y195F mutant expressed in HEK293S cells assessed as specific photoincorporation at 46 pmol by scintillation counting relative to wild type
[37] = Binding affinity to Aplysia californica AchBP M116Y, Y195F mutant expressed in HEK293S cells by scintillation proximity assay
HEK293S [38] = assay: Binding affinity to Aplysia californica AchBP I118M, M116L mutant expressed in HEK293S cells assessed as specific photoincorporation at 46 pmol by scintillation counting relative to wild type

`Clc1ccc(C2CC3CCC2N3)cn1` (racemic) [EPIBATIDINE] gave a Kd [1] of 5 nM, a Kd [2] of 25 nM and an Activity (HEK293S [3]) of 121%. It also gave an Activity (HEK293S [4]) of 26%, a Kd [5] of 9 nM and an Activity (HEK293S [6]) of 33%. For the same compound, the Activity (HEK293S [7]) was 4.7%, the Activity (HEK293S [8]) was 6.9% and the Activity (HEK293S [9]) was 13%. It also gave an Activity (HEK293S [10]) of 0%, an Activity (HEK293S [11]) of 29% and a Kd [12] of 8.6 nM. For the same compound, the Kd [13] was 21 nM, the Kd [14] was 22 nM and the Kd [15] was 10 nM. It also gave an Activity (HEK293S [16]) of 13%, an Activity (HEK293S [17]) of 35% and an Activity (HEK293S [18]) of 1%. The Kd [19] was 29 nM, the Kd [20] was 7.6 nM and the Activity (HEK293S [21]) was 27%. For the same compound, the Activity (HEK293S [22]) was 3.9%, the Activity (HEK293S [23]) was 2% and the Activity (HEK293S [24]) was 3.4%. For the same compound, the Activity (HEK293S [25]) was 8.1%, the Kd [26] was 2.9 nM and the Kd [27] was 12 nM. The Activity (HEK293S [28]) was 30%, the Kd [29] was 2.9 nM and the Activity (HEK293S [30]) was 90%. For the same compound, the Kd [31] was 24 nM, the Activity (HEK293S [32]) was 28% and the Activity (HEK293S [33]) was 13%. For the same compound, the Kd [34] was 57 nM, the Kd [35] was 12 nM and the Activity (HEK293S [36]) was 16%. For the same compound, the Kd [37] was 115 nM and the Activity (HEK293S [38]) was 55%.
